Laboratory results taken from US10849904B2, “Methods for treatment of retinal disease by photoreceptor gene expression modulation” (University of Washington, priority 2015, dated 2020).

How the values were obtained:
rhodopsin = assay: IP injection of P2 or P3 pups, rhodopsin expression by qPCR; type: in vivo, mouse; settings: pups IP 20 μl of 50 mM at P2 or P3, sacrificed the following day, vs DMSO
Protocol: Nr2e3 is expressed in developing rods prior to birth, and so to test whether PR1 could affect prenatal rod development, wild type timed-pregnant dams were injected with 100 μl of 50 mM PR1 at E14 and E17, during peak S cone photoreceptor genesis and the onset of Nr2e3 expression (FIG. 7F). The pups were sacrificed at P0 and their retinas collected for staining and for quantifying S opsin+ photoreceptors. […] To determine if PR1 affected rhodopsin expression in developing rods in vivo, pups were injected with 20 μl of 50 mM PR1 or an equal volume of DMSO at P2 or P3 (FIG. 7I). The pups were sacrificed the following day and analyzed rhodopsin expression by qPCR.
RNA was isolated using TRIzol (Invitrogen) and cDNA was synthesized using the iScript cDNA synthesis kit (Bio-Rad) following an intervening DNase treatment with RQ1 RNase-free DNase (Promega). SSO Fast (Bio-Rad) was used for quantitative real-time PCR. For analysis, values were normalized to Gapdh and ΔΔCt between DMSO and compound-treated samples was expressed as percent of DMSO treated controls (100*2^ΔΔCt). Two-way Student's t-tests were performed on ΔCt values.
For intravitreal injections, adult mice (>P21) were anesthetized with isoflurane and injected with 1.5 μl of 10 mM PR1 using a 32-gauge Hamilton needle. […]

[1] = system: Explants from P12 Nrl-eGFP mice; assay: P12 Nrl-eGFP mouse retinal explants, 5 DIV, immunofluorescence and EdU; type: cell-based
Protocol: Previous loss of function genetic data has shown that Nr2e3 is required for rod photoreceptor development, but it is not known whether there is a continuing requirement for Nr2e3 in mature rods. […] To further examine the effects of PR1 at these late developmental stages, the effects of PR1 on P12 retinal explants by immunohistochemical analysis were studied (FIG. 8A). Explants from P12 Nrl-eGFP mice were cultured for 5 days in either DMSO or 1 μM PR1 containing media, and then fixed and processed for immunofluorescent labeling with anti-rhodopsin and anti-S opsin antibodies.
To determine if PR1 affects retinal cells other than photoreceptors, bipolar cells (PKCα, Chx10), amacrine cells (HuCD), and Muller glia (Sox2) were quantified in explants treated with DMSO or 1 μM PR1 for 5 DIV. […] EdU (5-ethynyl-2′-deoxyuridine) was added to the cultures to determine whether PR1 might have a similar effect.
Intact retinas without RPE from mice of various strains and ages as indicated were explanted on 0.4 μm pore tissue culture inserts (Millipore) as previously described (Ueki, Y., et al., P53 is required for the developmental restriction in Muller glial proliferation in mouse retina. Glia, 2012. 60(10): p. 1579-89; Ueki, Y., et al., A transient wave of BMP signaling in the retina is necessary for Muller glial differentiation. Development, 2015. 142(3): p. 533-43. Full media (DMEM/F12 (1:1) containing 1% dialyzed FBS, 1% Pen Strep, 0.3% D+ glucose, 2% B27, and 1% N2) changes were performed every other day and small molecules were used at 0.1 μM to 10 μM. Where indicated, EdU (Invitrogen) was included in the media at 5 μg/mL and visualized by staining with the Click-iT EdU Alexa Fluor kit (Thermo Fisher Scientific). For human retinal explant cultures, tissue from 113 day post-conception fetuses was obtained from the University of Washington Birth Defects Laboratory and explanted on 0.4 μm pore tissue culture inserts (Millipore) in media (Neurobasal A with 1% FBS, 1% Pen Strep, 1% N2, 1% B27) containing 10 μM Photoregulin1 or an equal volume of DMSO.
Retinal explants or eyecups were fixed in 4% PFA in 1×PBS for 20 minutes at room temperature and then cryoprotected in 30% sucrose in 1×PBS overnight at 4° C. Samples were embedded in OCT (Sakura Finetek), frozen on dry ice, and then sectioned at 14-16 μm on a cryostat (Leica). Slides were blocked with a solution containing 10% Normal Horse Serum (Vector Labs) and 0.5% Triton X-100 (Sigma-Aldrich) in 1×PBS for 1 hour at room temperature and then stained overnight at 4° C. with primary antibodies diluted in blocking solution. Slides were washed three times with 1×PBS the following day and then incubated in secondary antibodies (Life Technologies) diluted in blocking solution for 2 hours at room temperature, stained with DAPI (Sigma-Aldrich), washed, and coverslipped using Fluoromount-G (SouthernBiotech). An Olympus FluoView FV1000 was used for confocal microscopy.

[2] = system: retina from Rho^P23H transgenic mice at P8; assay: P8 Rho^P23H retinal explants, rhodopsin Western blot; type: cell-based, mouse; settings: 2 μM, three days
Excerpt: The effect of PR1 on Rho expression in adult rods might have potential as a way to slow the degeneration of these cells in dominant forms of retinitis pigmentosa, like Rho^P23H. In this disease, the affected individuals express a mutant form of rhodopsin that is likely inappropriately processed and ultimately leads to the death of the rods. […] The majority of rod cell death in the Rho^P23H transgenic line occurs between P14 and P21. […] […] The number of nuclei were counted in the ONL of each retina in the central region 100 μm from the optic nerve head. […] Gnb1 expression was also monitored as another measure of rod photoreceptor preservation because this is not directly affected by PR1 and thus serves as a surrogate for rod number. […]
Retinal explants or retinas were homogenized in lysis buffer (50 mM Tris, 100 mM NaCl, 5 mM EDTA, 0.1% SDS, 1% Triton X-100, 2.5% glycerol, and 1× protease inhibitor cocktail) and equal amounts of protein samples were loaded and run in a 4-20% SDS gel (Bio-Rad). […] Signals were visualized on X-ray film with SuperSignal West Dura Extended Duration Substrate (Thermo Fisher Scientific) and quantified using ImageJ software (NIH).

Cc1cc(C)cc(NC(=O)CCc2nc3sc4c(c3c(=O)[nH]2)CCCC4)c1 [PR1, N-(3,5-dimethylphenyl)-3-(4-oxo-5,6,7,8-tetrahydro-3H-[1]benzothiolo[2,3-d]pyrimidin-2-yl)propanamide]
rhodopsin expression by qPCR (rhodopsin): decreased rhodopsin | number of S opsin+ cells in the ONL ([1]; P12 explants, 1 μM, 5 days): increase in the number of S opsin+ cells | rhodopsin staining in Nrl-GFP-positive rods ([1]; P12 explants, 1 μM, 5 days): dramatic decrease in rhodopsin staining | number of EdU labeled cells ([1]; P12 explants, 5 DIV, EdU in media): increase in the number of EdU labeled cells | migration of the Muller glial (Sox2+) nuclei into the ONL ([1]; explants, 1 μM, 5 DIV): increase in the migration | bipolar cells (PKCα, Chx10), amacrine cells (HuCD), and Muller glia (Sox2) ([1]; explants, 1 μM, 5 DIV, vs DMSO): No differences | rhodopsin expression in the mutant rods [2]: effectively reduced rhodopsin expression
